# PubChem BioAssay AID338 (DTP/NCI, 2004)
# Where “and” joins values, the source holds several entries; their conditions need not be identical. Identical values can stand only once. Toxic doses and inconclusive results are not listed.
# Tested on: BDF1 mice, P388 leukemia (terephthalanilide-resistant), survival T/C
# Experiment: NCI In Vivo Anticancer Drug Screen. Data for tumor model P388 Leukemia resistant to A Terephthalanilide; NSC 38280 (intraperitoneal) in B6D2F1 (BDF1) mice
# Details: endpoint: median survival time, higher = longer survival
# Method: The antitumor activity of compounds was measured in mice bearing transplantable tumors. Survival or tumor size were measured and the results are expressed as the measurement made in the treated group (T) divided by the measurement made in the vehicle treated control group (C). The tumor model used in this assay is P388 Leukemia resistant to A Terephthalanilide; NSC 38280 (intraperitoneal) in B6D2F1 (BDF1) mice
# [1] = dose: 62.5 mg/kg/injection, schedule: Q01DX010 (ip), vehicle: saline
# [2] = dose: 125.0 mg/kg/injection, schedule: Q01DX010 (ip), vehicle: saline
# [3] = dose: 250.0 mg/kg/injection, schedule: Q01DX010 (ip), vehicle: saline
# [4] = dose: 500.0 mg/kg/injection, schedule: Q01DX010 (ip), vehicle: saline
# [5] = dose: 25.0 mg/kg/injection, schedule: Q01DX010 (ip), vehicle: saline
# [6] = dose: 50.0 mg/kg/injection, schedule: Q01DX010 (ip), vehicle: saline
# [7] = dose: 100.0 mg/kg/injection, schedule: Q01DX010 (ip), vehicle: saline
# [8] = dose: 200.0 mg/kg/injection, schedule: Q01DX010 (ip), vehicle: saline
# [9] = dose: 16.0 mg/kg/injection, schedule: Q01DX010 (ip), vehicle: saline
# [10] = dose: 32.0 mg/kg/injection, schedule: Q01DX010 (ip), vehicle: saline
# [11] = dose: 8.0 mg/kg/injection, schedule: Q01DX010 (ip), vehicle: saline
# [12] = dose: 64.0 mg/kg/injection, schedule: Q01DX010 (ip), vehicle: saline
# [13] = dose: 10.0 mg/kg/injection, schedule: Q01DX010 (ip), vehicle: saline
# [14] = dose: 20.0 mg/kg/injection, schedule: Q01DX010 (ip), vehicle: saline
# [15] = dose: 40.0 mg/kg/injection, schedule: Q01DX010 (ip), vehicle: saline
# [16] = dose: 3.13 mg/kg/injection, schedule: Q01DX010 (ip), vehicle: saline
# [17] = dose: 6.25 mg/kg/injection, schedule: Q01DX010 (ip), vehicle: saline
# [18] = dose: 12.5 mg/kg/injection, schedule: Q01DX010 (ip), vehicle: saline
# [19] = dose: 5.0 mg/kg/injection, schedule: Q01DX010 (ip), vehicle: saline
compound,measurement,setting,value
O=c1cn[nH]c(=O)[nH]1,T/C,[1],105 % of control
same,T/C,[2],111 % of control
same,T/C,[3],90 % of control and 105 % of control
same,T/C,[4],88 % of control
CSc1ncnc2nc[nH]c12,T/C,[5],104 % of control and 105 % of control
same,T/C,[6],100 % of control and 104 % of control
same,T/C,[7],100 % of control
same,T/C,[8],105 % of control and 109 % of control
CCCCn1cnc2c(=S)nc[nH]c21,T/C,[9],86 % of control
same,T/C,[10],90 % of control
Nc1nc(SCc2ccccc2)c2[nH]cnc2n1,T/C,[11],105 % of control
same,T/C,[9],100 % of control and 105 % of control
same,T/C,[10],121 % of control
same,T/C,[12],115 % of control and 122 % of control
CC1CCOS(=O)O1 (centres undefined),T/C,[13],100 % of control
same,T/C,[14],95 % of control
same,T/C,[15],100 % of control
O=C(Nc1ccc(C2=NCCN2)cc1)c1cccc(C(=O)Nc2ccc(C3=NCCN3)cc2)c1,T/C,[11],112 % of control
same,T/C,[12],150 % of control
CC/C(=C(/CC)c1ccc(O)cc1)c1ccc(O)cc1,T/C,"dose: 12.5 mg/kg/injection, schedule: Q01DX010 (sc), vehicle: steriod suspending solution",90 % of control
same,T/C,"dose: 25.0 mg/kg/injection, schedule: Q01DX010 (sc), vehicle: steriod suspending solution",90 % of control
same,T/C,"dose: 100.0 mg/kg/injection, schedule: Q01DX010 (sc), vehicle: steriod suspending solution",90 % of control
CN=C(NC)c1ccc(NC(=O)Nc2ccc(NC(=O)Nc3ccc(C(=NC)NC)cc3)cc2)cc1,T/C,"dose: 13.3 mg/kg/injection, schedule: Q01DX010 (ip), vehicle: saline",111 % of control
same,T/C,[14],94 % of control
same,T/C,"dose: 30.0 mg/kg/injection, schedule: Q01DX010 (ip), vehicle: saline",111 % of control
CN[C@H]1CCc2cc(OC)c(OC)c(OC)c2-c2ccc(OC)c(=O)cc21,T/C,"dose: 0.63 mg/kg/injection, schedule: Q01DX010 (ip), vehicle: other",94 % of control and 110 % of control
same,T/C,"dose: 1.25 mg/kg/injection, schedule: Q01DX010 (ip), vehicle: other",100 % of control and 110 % of control
same,T/C,"dose: 2.5 mg/kg/injection, schedule: Q01DX010 (ip), vehicle: other",100 % of control and 120 % of control
same,T/C,"dose: 5.0 mg/kg/injection, schedule: Q01DX010 (ip), vehicle: other",88 % of control and 115 % of control
c1ccc(CCSc2ncnc3nc[nH]c23)cc1,T/C,[1],90 % of control
same,T/C,[2],90 % of control
same,T/C,[3],100 % of control
same,T/C,[4],100 % of control
OCC1OC(n2cnc3c(Cl)ncnc32)C(O)C1O (centres undefined),T/C,[1],94 % of control
same,T/C,[2],100 % of control
same,T/C,[3],90 % of control and 94 % of control
same,T/C,[4],90 % of control and 111 % of control
Nc1nc(N)c2nc(CNc3ccc(C(=O)NC(CCC(=O)O)C(=O)O)cc3)cnc2n1 (centres undefined),T/C,"dose: 25.0 micrograms/kg/injection, schedule: Q01DX010 (ip), vehicle: other",112 % of control
same,T/C,"dose: 50.0 micrograms/kg/injection, schedule: Q01DX010 (ip), vehicle: other",112 % of control
same,T/C,"dose: 200.0 micrograms/kg/injection, schedule: Q01DX010 (ip), vehicle: other",150 % of control
COc1cc(-c2ccc(Nc3ccccc3C(=O)O)c(OC)c2)ccc1Nc1ccccc1C(=O)O,T/C,"dose: 67.0 mg/kg/injection, schedule: Q01DX010 (ip), vehicle: saline",159 % of control
same,T/C,[7],159 % of control
C[C@H]1C(=O)O[C@@H]2CCN3CC=C(COC(=O)[C@](C)(O)[C@@]1(C)O)[C@H]23,T/C,[16],90 % of control and 100 % of control
same,T/C,[17],95 % of control
same,T/C,[18],95 % of control and 100 % of control
same,T/C,[5],105 % of control and 109 % of control
O=C(O)CCCc1ccc(N(CCCl)CCCl)cc1,T/C,[16],100 % of control and 105 % of control
same,T/C,[17],110 % of control and 116 % of control
same,T/C,[18],105 % of control and 120 % of control
NC(=O)N(CCCl)N=O,T/C,"dose: 0.5 mg/kg/injection, schedule: Q01DX010 (ip), vehicle: saline",172 % of control
same,T/C,"dose: 1.0 mg/kg/injection, schedule: Q01DX010 (ip), vehicle: saline",172 % of control
same,T/C,"dose: 2.0 mg/kg/injection, schedule: Q01DX010 (ip), vehicle: saline",109 % of control
O=NN(CCCl)C(=O)NCCCl,T/C,[17],225 % of control and 245 % of control
same,T/C,[18],215 % of control and 300 % of control
same,T/C,[5],110 % of control
CN(Cc1cnc2nc(N)nc(N)c2n1)c1ccc(C(=O)N[C@@H](CCC(=O)O)C(=O)O)cc1,T/C,"dose: 0.19 mg/kg/injection, schedule: Q01DX010 (ip), vehicle: other",122 % of control
same,T/C,"dose: 0.38 mg/kg/injection, schedule: Q01DX Z (ip), vehicle: saline",172 % of control and 195 % of control
same,T/C,"dose: 0.75 mg/kg/injection, schedule: Q01DX010 (ip), vehicle: other",194 % of control
same,T/C,"dose: 0.75 mg/kg/injection, schedule: Q01DX Z (ip), vehicle: saline",272 % of control and 277 % of control
same,T/C,"dose: 1.5 mg/kg/injection, schedule: Q01DX010 (ip), vehicle: other",216 % of control
same,T/C,"dose: 1.5 mg/kg/injection, schedule: Q01DX Z (ip), vehicle: saline",213 % of control and 272 % of control
same,T/C,"dose: 3.0 mg/kg/injection, schedule: Q01DX010 (ip), vehicle: other",111 % of control
same,T/C,"dose: 3.0 mg/kg/injection, schedule: Q01DX Z (ip), vehicle: saline",90 % of control and 95 % of control
O=C(Nc1cccc(C(=O)Nc2ccc(C3=NCCN3)cc2)c1)c1ccc(C2=NCCN2)cc1,T/C,"dose: 54.0 mg/kg/injection, schedule: Q01DX010 (ip), vehicle: saline",117 % of control
Nc1cc(C(=O)Nc2ccc(C3=NCCN3)cc2)cc(C(=O)Nc2ccc(C3=NCCN3)cc2)c1,T/C,[9],111 % of control
same,T/C,[12],183 % of control
O=C1C(NC(=O)C2CCCCC2)=C(N2CC2)C(=O)C(NC(=O)C2CCCCC2)=C1N1CC1,T/C,[8],90 % of control
OCC1OC(n2cnc3c(=S)nc[nH]c32)C(O)C1O (centres undefined),T/C,[14],90 % of control and 111 % of control
same,T/C,[15],100 % of control and 105 % of control
same,T/C,"dose: 80.0 mg/kg/injection, schedule: Q01DX010 (ip), vehicle: saline",116 % of control
same,T/C,"dose: 160.0 mg/kg/injection, schedule: Q01DX010 (ip), vehicle: saline",110 % of control
N=[N+]=CC(=O)OCC(N)C(=O)O (centres undefined),T/C,[18],115 % of control and 116 % of control
same,T/C,[5],88 % of control
CN(C)c1ccc(/C=C/c2ccnc3ccccc23)cc1,T/C,[19],100 % of control and 111 % of control
same,T/C,[13],100 % of control and 111 % of control
same,T/C,[14],90 % of control and 94 % of control
same,T/C,[15],116 % of control
N#[N+]c1cnc([O-])[nH]c1=O,T/C,"dose: 1.25 mg/kg/injection, schedule: Q01DX010 (ip), vehicle: saline",113 % of control
same,T/C,"dose: 2.5 mg/kg/injection, schedule: Q01DX010 (ip), vehicle: saline",113 % of control
same,T/C,[19],95 % of control and 122 % of control
CS(=O)(=O)OCC(O)C(O)C(O)C(O)COS(C)(=O)=O (centres undefined),T/C,[6],100 % of control
same,T/C,[7],100 % of control
same,T/C,[8],100 % of control
same,T/C,"dose: 400.0 mg/kg/injection, schedule: Q01DX010 (ip), vehicle: saline",100 % of control
O=C(Nc1ccc(C2=NCCN2)cc1)c1ccc(C(=O)Nc2ccc(C3=NCCN3)cc2)cc1,T/C,"dose: 75.0 mg/kg/injection, schedule: Q01DX010 (ip), vehicle: saline",116 % of control
same,T/C,"dose: 167.0 mg/kg/injection, schedule: Q01DX010 (ip), vehicle: saline",122 % of control
CCCNC(=NC)c1ccc(NC(=O)c2ccc(C(=O)Nc3ccc(C(=NC)NCCC)cc3)cc2)cc1,T/C,"dose: 5.2 mg/kg/injection, schedule: Q01DX010 (ip), vehicle: saline",100 % of control
same,T/C,[11],100 % of control
same,T/C,"dose: 12.0 mg/kg/injection, schedule: Q01DX010 (ip), vehicle: saline",111 % of control
same,T/C,"dose: 18.0 mg/kg/injection, schedule: Q01DX010 (ip), vehicle: saline",111 % of control
S=c1nc[nH]c2nc[nH]c12,T/C,"dose: 5.0 mg/kg/injection, schedule: Q01DX010 (ip), vehicle: alkali diluted with saline",105 % of control
same,T/C,"dose: 5.0 mg/kg/injection, schedule: Q01DX Z (ip), vehicle: saline",100 % of control
same,T/C,"dose: 10.0 mg/kg/injection, schedule: Q01DX010 (ip), vehicle: alkali diluted with saline",88 % of control
same,T/C,"dose: 10.0 mg/kg/injection, schedule: Q01DX Z (ip), vehicle: saline",100 % of control and 104 % of control
same,T/C,"dose: 20.0 mg/kg/injection, schedule: Q01DX010 (ip), vehicle: alkali diluted with saline",100 % of control
same,T/C,"dose: 20.0 mg/kg/injection, schedule: Q01DX Z (ip), vehicle: saline",100 % of control and 109 % of control
same,T/C,"dose: 40.0 mg/kg/injection, schedule: Q01DX010 (ip), vehicle: alkali diluted with saline",94 % of control
same,T/C,"dose: 40.0 mg/kg/injection, schedule: Q01DX Z (ip), vehicle: saline",122 % of control
same,T/C,"dose: 80.0 mg/kg/injection, schedule: Q01DX Z (ip), vehicle: saline",154 % of control
